Data set [1] deals with Recombinant human MALT1/MLT protein (Homo sapiens (Human), UniProt Q9UDY8). The data set can be described thus: Inhibitory effect on MALT1 enzyme activity (Ac-LRSR-AMC substrate, fluorescence 460 nm). It counts as biochemical. To be noted: 10 nM FL MALT1, Ac-LRSR-AMC substrate, 50 min pre-incubation, 4 h reaction. On the procedure: Ac-LRSR-AMC was used as the substrate to test the IC50 of the inhibitory activity of compounds on MALT1 enzyme activity at their Km concentration.
Ac-LRSR-AMC was used as the substrate which was digested by MALT1 to produce products, which produced fluorescence that could be detected at 460 nm. The highest concentration of the compound detected was 1000 nM, 3-fold dilution, a total of 11 concentrations (1000 nM-0.017 nM). The reaction system is 10 nM FL MALT1 protein, […] Ac-LRSR-AMC, 50 mM Tris pH 7.5, 0.6M Citrate, 1 mM DTT, 1 mM EDTA, 0.05% BSA and 1.5% DMSO. The compound and the enzyme were pre-incubated at room temperature for 50 min. The substrate was then added and the reaction was carried out for 4 h.
The original data (460 nm reading) was calculated according to the following formula to obtain the inhibition rate.
(§1) Log(inhibitor) vs. response—Variable slope (four parameters) in GraphPad Prism 6 was used to perform fitting equation analysis on compound concentration and corresponding inhibition rate, the curve was fit and compound IC50 value was obtained.
(§2) The fitting calculation equation is Y=Bottom+(Top−Bottom)/(1+10^((Log IC50−X)*HillSlope))

Another data set relates to Caco-2 cells. In words: Caco-2 bidirectional permeability test.
The subject of data set [2] is OCI-LY3 cell subcutaneous xenograft tumor. The data set can be described thus: Tumor inhibition in OCI-LY3 subcutaneous xenograft NOG mouse model of human diffuse large B-cell lymphoma. The settings on record: NOG mice, 30 mg, BID × 4 weeks, oral. It counts as in vivo. As to the method: The efficacy of test drugs was evaluated in OCI-LY3 mouse subcutaneous tumor model of human diffuse large B-cell lymphoma
• 1. Animal: NOG mice, female, 6-8 weeks old, weighing 18-22 grams, a total of 65 mice were needed. Provided by Beijing Vital River Laboratory Animal Technology Co., Ltd. or other qualified suppliers. • 2. Cell: Human diffuse large B-cell lymphoma OCI-LY3 cells were cultured in vitro as monolayers and conventional digestion treatment with trypsin-EDTA was carried out twice a week for passage. When the cell confluence was 80%-90% and the number reached the required number, cells were collected, counted, and inoculated. • 3. Grouping for vaccination: Cells (5×10^6 cells+Matrigel/0.2 ml) were inoculated subcutaneously into each mouse. The growth of animals and transplanted tumors were observed regularly. When the tumor grew to a volume of about 150-200 mm^3, the tumor volume of each mouse was calculated, and the mice were divided into random groups according to tumor volume and body weight. The calculation formula of tumor volume was V=0.5a×b^2, wherein a and b represented the long and short diameters of the tumor, respectively. • 4. Administration: According to the grouping results, the test drug was started to be administered (administration method: oral administration; Administration volume: 10 mL/kg; Administration frequency: 2 times/day; Administration cycle: 28 days; Vehicle: 10% solutol HS15-0.25% CMC-Na). Tumors were measured and weighed twice a week after starting administration of test drugs. • 5. Animals were euthanized after the experiment. • 6. Data processing: The tumor inhibitory efficacy of the compound was evaluated by TGI (%) or relative tumor proliferation rate T/C (%). TGI (%) reflects the tumor growth inhibition rate. Calculation of TGI (%): TGI (%)=[(1−(average tumor volume at the end of administration in a treatment group−average tumor volume at the beginning of administration in the treatment group))/(average tumor volume at the end of administration in the solvent control group−average tumor volume at the beginning of administration in the solvent control group)]×100%.
Relative tumor proliferation rate T/C (%): The calculation formulas are as follows: T/C %=TRTV/CRTV×100% (TRTV: RTV of treatment group; CRTV: RTV of negative control group). The relative tumor volume (RTV) was calculated based on the results of tumor measurement. The calculation formula is RTV=Vt/V0, where V0 is the average tumor volume measured at grouping for administration (i.e. d0), Vt is the average tumor volume at a certain measurement, and TRTV and CRTV take the data on the same day.
After the experiment, the tumor weight was measured, and the T/Cweight percentage was calculated. Tweight and Cweight represented the tumor weight of the administration group and the vehicle control group, respectively.
Remarks: The data in parentheses indicate the tumor volume corresponding to the vehicle group (i.e., the control group) at the corresponding time in this example.

For data set [3], the target named is MALT1 protease activity in TMD8 cells (substrate BCL-10) (Homo sapiens (Human), UniProt Q9UDY8). In words: Intracellular MALT1 protease activity detection (BCL-10 ELISA in TMD8 cells). It counts as cell-based. The settings on record: undigested BCL-10 by ELISA, 30 min compound then 2 h stimulation cocktail, read-out: Bcl10 TMD8 IC50. On the procedure:
By detecting the digestion level of the substrate BCL-10 by MALT1 in TMD8 cells, the inhibitory effect of the compound on MALT1 protease activity in the cellular environment was tested.
The ELISA sandwich method was used to detect the content of undigested BCL-10 protein in cells and determine the inhibitory effect of compounds on intracellular MALT1 protease activity. The highest concentration of the compound detected was 10000 nM, 3-fold dilution, a total of 9 concentrations (10000 nM-1.5 nM). Cells were plated at an appropriate density. Compounds of corresponding concentrations were first added for action for 30 min, and then eBioscience cell stimulation cocktail was added to stimulate the cells for 2 h. Cell lysate was then collected. The cell lysate was added to the assay plate previously coated with recombinant BCL-10 antibody (Abcam, #Ab33905) and incubated at 4° C. overnight. The next day, BCL-10 detection antibody (Santacruz, #Sc-5273HRP) was added and incubated for 2 h, TMB substrate was used for color development for about 30 min, then the color development was terminated, and a microplate reader was used for detection.
2) Curve fitting: Log(inhibitor) vs. response—Variable slope (four parameters) in GraphPad Prism 6 was used to perform fitting equation analysis on compound concentration and corresponding inhibition rate, the curve was fit and compound IC50 value was obtained.
as §2

Data set [4] in a line: Pharmacokinetics of oral administration in Balb/C mice. Type of data set: in vivo. To be noted: 30 mg/kg, P.O., plasma. On the procedure: Balb/C mice were used as test animals to study the pharmacokinetic behavior of the compound in the plasma of mice after oral administration at a dose of 30 mg/kg.
3 Balb/C mice (3/example), male, from Shanghai Jiesijie Experimental Animal Co., Ltd., animal production license number (SCXK (Shanghai) 2013-0006 N0.311620400001794).
3 Balb/C mice, male; p.o. respectively at a dose of 30 mg/kg and an administration volume of 10 mL/kg after the mice were fasted overnight.
Before and after administration of mice, 0.1 mL of blood was collected from the orbit at 0, 0.5, 1, 2, 4, 6, 8 and 24 h, and placed in EDTA-K2 test tubes, which was centrifuged at 6000 rpm at 4° C. for 6 min to separate plasma which was stored at −80° C.
• 1) 160 μL of acetonitrile was added to 40 μL of plasma sample for precipitation, and same was mixed and centrifuged at 3500×g for 5 to 20 min. • 2) 100 μL of the treated supernatant solution was taken and subjected to LC/MS/MS to analyze the concentrations of the test compounds.
• Liquid phase conditions: Shimadzu LC-20AD pump • Mass spectrometry conditions: AB Sciex API 4000 mass spectrometer • Chromatographic column: Phenomenex Gemiu 5 um C18 50×4.6 mm • Mobile phase: liquid A is 0.1% aqueous formic acid solution, liquid B is acetonitrile • flow rate: 0.8 mL/min • Elution time: 0-4.0 min, the eluent is as follows:
The main pharmacokinetic parameters were calculated using WinNonlin 8.2.

In another data set the test system is OCI-Ly3 cells. The data set can be described thus: Inhibition of proliferation of OCI-Ly3 cells (CellTiter-Glo). It counts as cell-based, human. To be noted: 96 h incubation, read-out: Inhibition test of proliferation of OCI-Ly3 cells IC50. On the procedure:
The compound's inhibitory effect on the proliferation of TMD8 and OCI-Ly3 cells was evaluated through cell proliferation inhibition experiments.
The compound's inhibitory effect on the proliferation of TMD8 and OCI-Ly3 cells was detected by the CellTiter-Glo method. The highest concentration of the compound detected was 1000 nM, 3-fold dilution, a total of 9 concentrations (1000 nM-0.15 nM). After the cells were plated at an appropriate density, compounds were added the next day and incubated for 96 h before detection using the CellTiter-Glo Luminescent detection kit.
as §1, §2

Sequence of MALT1 protease activity in TMD8 cells (substrate BCL-10) (Q9UDY8 whole entry): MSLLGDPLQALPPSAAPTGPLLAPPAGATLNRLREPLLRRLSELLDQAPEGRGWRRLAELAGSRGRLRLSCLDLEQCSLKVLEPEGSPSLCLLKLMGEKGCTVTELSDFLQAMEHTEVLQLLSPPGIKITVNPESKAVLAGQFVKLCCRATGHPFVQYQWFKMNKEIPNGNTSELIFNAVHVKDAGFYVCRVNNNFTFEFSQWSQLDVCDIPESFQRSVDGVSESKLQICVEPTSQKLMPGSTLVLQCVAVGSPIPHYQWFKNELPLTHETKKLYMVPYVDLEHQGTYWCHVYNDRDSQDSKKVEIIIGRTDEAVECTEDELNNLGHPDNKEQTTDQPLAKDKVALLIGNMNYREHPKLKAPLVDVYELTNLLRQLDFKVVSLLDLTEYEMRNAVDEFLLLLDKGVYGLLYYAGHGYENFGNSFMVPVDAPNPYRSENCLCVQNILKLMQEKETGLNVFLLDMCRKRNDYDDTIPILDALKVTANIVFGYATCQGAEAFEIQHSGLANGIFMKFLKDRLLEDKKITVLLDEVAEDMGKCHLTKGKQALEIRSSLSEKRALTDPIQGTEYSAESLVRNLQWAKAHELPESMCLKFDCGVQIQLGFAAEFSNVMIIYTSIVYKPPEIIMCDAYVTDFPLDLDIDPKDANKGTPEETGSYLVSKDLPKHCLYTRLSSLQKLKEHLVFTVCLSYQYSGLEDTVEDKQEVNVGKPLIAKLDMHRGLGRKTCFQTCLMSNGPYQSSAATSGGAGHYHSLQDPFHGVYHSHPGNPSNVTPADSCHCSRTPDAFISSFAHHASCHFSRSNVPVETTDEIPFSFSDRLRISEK
Sequence of Recombinant human MALT1/MLT protein (Q9UDY8 whole entry): as above
Experimental for Caco-2 cells: The purpose of this experiment is to test the bidirectional permeability of the compound through the Caco-2 cell model and evaluate whether the compound is transported by efflux transporters.
Liquid chromatography-mass spectrometer, centrifuge, vortexer, pipette, 96-well test plate (HTS Transwell Plate), acetonitrile solution containing internal standard, Caco-2 cells (ATCC), Hank's balance solution (HBSS), fluorescent yellow (LY), dimethyl sulfoxide (DMSO).
108 μL of transport buffer (HBSS containing 10 μM of the example compound) was added to the administration end of A to B. • b. 300 μL of transport buffer (HBSS containing DMSO) was added to the receiving end of A to B. • c. 300 μL of transport buffer (HBSS containing 10 μM example compound) was added to the administration end of A to B. • d. 108 μL of transport buffer (HBSS containing DMSO) was added to the receiving end of A to B. • e. incubation was performed for 90 min. • d. a sample was taken, processed and detected with mass spectrometry.
• Instruments: Liquid Chromatography; • Chromatographic column: Waters XSelect HSS T3 2.5 μm (2.1×50 mm); • Mobile phase: Phase A: 0.1% formic acid in pure water; Phase B: 0.1% formic acid in acetonitrile.
• Instruments: AP16500+liquid chromatography-mass spectrometer; • The ion source is electrospray ionization source (ESI); • The detection method is positive ion detection;
The scanning method is selected reaction monitoring (MRM).

Turning to `O=C(Nc1ccnc(C(F)(F)F)c1)c1cnn(-c2ccc3c4c(cccc24)C(=O)N3)c1C(F)(F)F` [Example 27], the IC50 in data set [1] came to 0.162 µM. For the same molecule, the “Papp A − B” value in the data set on Caco-2 cells (Caco-2, 10 μM, 90 min, A to B) was 4.21 10^−6 cm · s^−1. Also, the “Papp B − A” value with Caco-2 cells (Caco-2, 10 μM, 90 min, B to A) is listed as 11.52 10^−6 cm · s^−1. Further, the “Papp(B − A)/Papp(A − B)” value in the data set on Caco-2 cells (Caco-2 efflux ratio) was 2.74. Further, in data set [2], the “TGI (%) Day 28” value is 93.04%, the “Weight Day 28” value amounted to 20.34 ± 0.78 and the “ΔT/ΔC(%) Day 28” value is on record as 19.83%. In addition, in data set [2] (vehicle group 1274 ± 82), the “Tumor volume (Mean ± SD) Day 28” value was 230 ± 50 (1274 ± 82) mm^3. In addition, in data set [3], the IC50 amounted to 0.051 µM. In data set [4], the “AUC0-∞” value is 1,584,433 ng/mL*hr, the “AUC(0-t)” value is reported as 1,130,746 ng/mL*h, the Cmax is reported as 71,267 ng/mL and the MRT was found to be 18.7 h. The T1/2 in data set [4] was determined as 13.1 h. In addition, in the data set on OCI-Ly3 cells, the IC50 was 0.804 µM.

The values above are taken from patent US20250059196A1 (SHANGHAI HANSOH BIOMEDICAL CO., LTD., priority 2021, published 2025).
